# In patent US20040043992A1, “Meloxicam for alleviating organ injury during organ operation or transplantation” (Boehringer Ingelheim International GmbH, priority 2002, published 2004):
# Where two headings read alike, the source gives them in different places. Square brackets hold non-standard residues; d marks the D form. Peptide text beside a SMILES is read from it. Nle = CCCC[C@H](N)C(=O)O
# Legend:
# [1] = tested on: ischemia/reperfusion injury of the liver; test: in vivo warm ischemia (Pringle's maneuver) and reperfusion of the liver in rats; design: species or system male Wistar rats; conditions: for Creatinine / GPT / LDH / TNF-alpha: 30 minutes warm ischemia of the liver, 60 minutes of reperfusion, GdCl3 10 mg/kg 24 hours prior
# Method: In the following experiment, the ability of an in vivo treatment with meloxicam to reduce ischemia/reperfusion injury of the liver was assessed.
# For this purpose, male Wistar rats (250 g to 280 g body weight) were anesthetized with intraperitoneal application of pentobarbital (50 mg/kg body weight) and atropine (0.05 mg). All animals were subjected to a 30 minutes warm ischemia of the liver (Pringle's maneuver) and 60 minutes of reperfusion after median lapatomtomy.
# One group of animals received no additional treatment (Control group). Another group was given 1 mg/kg body weight meloxicam just prior to the operation (COX-2I group). A third group was given 10 mg/kg body weight gadolinium chloride (GdCl3) 24 hours prior to the operation (GdCl3 group). A fourth group was given 10 mg/kg body weight gadolinium chloride 24 hours prior to operation and 1 mg/kg body weight meloxicam just prior to the operation (GdCl3+COX-2I group). Gadolinium chloride provides for a selective depletion of the liver Kupffer cells.
# To assess and compare the level of injury in all groups of animals, a measurement of the enzyme release of glutamate pyruvate transaminase (GPT) and lactate dehydrogenase (LDH) was measured as indicator of hepatocellular injury, and the release of creatinine and TNF-alpha as an indicator of inflammation. To quantify the cellular damage on a structural level, histochemistry was performed with HE staining as well as immunohistochemistry using the TUNEL assay to quantify the apoptotic changes of the livers.
# [2] = tested on: livers of NHBDs (Non Heart Beating Donors); test: ischemic in vitro preservation and reperfusion of livers of Non Heart Beating Donors; design: species or system Wistar rat; conditions: meloxicam 4.6 mg/kg body weight added to HTK solution; 60 minutes warm ischemia, 24 hours at 4° C., 45 minutes of reperfusion
# Method: A previous (unpublished) study was been performed by the inventors on the ischemic in vitro preservation of livers of NHBDs (Non Heart Beating Donors). The aim of this study was to test the ability of meloxicam to ameliorate the ischemia/reperfusion injury of these livers. The experiments were performed using a Wistar rat model. Cardiac arrest was induced in Wistar rats under anesthesia by phrenotomy. The livers were excised after 60 minutes of warm ischemia, flushed with 20 mL of Ringer's solution containing heparin and subsequently with 60 mL of Histidine-Tryptophane-Cetoglutarate (or HTK) solution and preserved for 24 hours at 4° C. In half of the experiments, meloxicam (4.6 mg/kg body weight) was added to the HTK solution. Reperfusion was carried out in vitro (3 mL/g/min) with oxygenated buffer at 37° C. After 45 minutes of reperfusion, portal venous pressure (PVP) was measured to evaluate vascular conductivity, the enzyme release of alanine aminotransferase (ALT) and […] (GLDH) was measured as indicator of hepatocellular injury, and the bile production and oxygen consumption (VO2) as parameter of functional recovery of the livers. To estimate the impact of oxygen free radicals, the production of malondialdehyde was measured in the hepatic effluent.
# [3] = tested on: liver injuries after Pringle's maneuver; conditions: cited from earlier work; for number of polymorphonuclear neutrophils, lower than in untreated animals: 1 mg/kg
# [4] = tested on: warm ischemia/reperfusion injury (hepatic parenchymal injury); conditions: pre- and post-ischemic administration; serum ALT, AST, LDH, HA; cited from earlier work
# [5] = tested on: injury associated with ischemia/reperfusion of the brain, liver, kidney, lung, intestine, heart, and pancreas; conditions: administered 30 minutes prior to an hemorrhagic shock; cited from earlier work
# [6] = tested on: ischemia/reperfusion injury during organ operation or transplantation; conditions: in vivo; cited from earlier work
# [7] = meloxicam 1 mg/kg just prior to operation
# [8] = 1 mg/kg via the portal vein, 60 minutes warm ischemia
structure (smiles),measurement,setting,value
"Cc1cnc(NC(=O)C2=C(O)c3ccccc3S(=O)(=O)N2C)s1 [COX-2I, 4-hydroxy-2-methyl-N-(5-methyl-2-thiazolyl)-2H-1,2-benzothiazine-3-carboxamide-1,1-dioxide]",Creatinine,[1]; [7],0.65 mg/dL
same,GPT,[1]; [7],973 Units/liter
same,LDH,[1]; [7],6765 Units/liter
same,TNF-alpha,[1]; [7],3.5 pg/mL serum
same,lower level of GPT compared to the untreated Control group,[1]; [7],3 times
same,lower level of LDH compared to the untreated Control group,[1]; [7],4 times
same,lower level of TNF-alpha compared to the untreated Control group,[1]; [7],5 times
same,lower level of creatinine compared to the untreated Control group,[1]; [7],2 times
same,"necrotic and apoptotic changes of the liver (HE staining, TUNEL assay)","[1]; meloxicam treated groups, histochemistry",less necrotic as well as less apoptotic changes
same,reduction of infiltration of MPO (myloperoxidase) positive cells into the liver after I/R,[1]; myeloperoxidase reaction (Hanker-Yates solution),~50%
same,in vitro preservation of grafts from NHBDs,[2],improves the in vitro preservation of grafts from NHBDs
same,production of free oxygen radicals during reperfusion (malondialdehyde in hepatic effluent),[2],decreased the production of free oxygen radicals during reperfusion
"CC(=O)c1ccc(NS(C)(=O)=O)c(Oc2ccc(F)cc2F)c1 [FK3311, 4′-acetyl-2′-(2,4-difluorophenoxy)methanesulfonanilide]","level of serum enzyme activity (GOT, GPT, LDH) relative to untreated animals",[3]; [8],about half
same,time after reperfusion by which blood flow recovered to the pre-ischemic level,[3]; [8],≤ 30 min
same,"number of polymorphonuclear neutrophils, lower than in untreated animals",[3]; 1 hour after reperfusion,about 40%
same,"number of polymorphonuclear neutrophils, lower than in untreated animals",[3]; 6 hours after reperfusion,about 25%
same,protection against warm ischemia/reperfusion injury,[4],satisfactory protection
"[Cl][Gd]([Cl])[Cl] [GdCl3, gadolinium chloride]",Creatinine,[1]; [7],0.94 mg/dL
same,GPT,[1]; [7],1611 Units/liter
same,LDH,[1]; [7],12100 Units/liter
same,TNF-alpha,[1]; [7],8.05 pg/mL serum
"CC(=N)NCCCC[C@H](N)C(=O)O.Cl.Cl [LNIL, L-N^6-(L-iminoethyl)lysine dihydrochloride]",injury associated with ischemia/reperfusion of organs,[5],may also contribute to a protective effect
CC(=O)Oc1ccccc1C(=O)O [aspirin],reduction of ischemia/reperfusion injury during organ operation or transplantation,[6],did not significantly reduce
CCCC[C@@H](C=O)NC(=O)[C@H](CC(C)C)NC(=O)[C@H](CC(C)C)NC(C)=O [calpain inhibitor I] (Ac-Leu-Leu-[Nle]-aldehyde),injury associated with ischemia/reperfusion of organs,[5],reduces the injury
COc1ccc2c(c1)c(CC(=O)O)c(C)n2C(=O)c1ccc(Cl)cc1 [indomethacin],reduction of ischemia/reperfusion injury during organ operation or transplantation,[6],did not significantly reduce
